Measured values published in ChEMBL document CHEMBL1136569, “Quinolone-based IMPDH inhibitors: introduction of basic residues on ring D and SAR of the corresponding mono, di and benzofused analogues” (Bioorg Med Chem Lett, 2003).
pIC50: −log10 of the molar value.

Tests used:
CCRF-CEM = experiment: Inhibitory activity against proliferation of CEM cell line; format: functional, cell-based, Homo sapiens
[1] = target: Inosine-5'-monophosphate dehydrogenase 2 (Homo sapiens, UniProt P12268); experiment: Inhibitory activity against inosine monophosphate dehydrogenase IMPDH II
[2] = Inhibitory activity against proliferation of peripheral blood mononuclear cells; format: functional, Homo sapiens

COc1cc2nc(-c3ccc4c(c3)C(=O)CCC4)cc(O)c2cc1-c1cnco1
pIC50 (CCRF-CEM; Homo sapiens, CCRF-CEM): 6.28 | pIC50 [1]: > 8.00

COc1cc2nc(-c3ccc4c(c3)C(O)CC4)cc(O)c2cc1-c1cnco1 (stereo not given)
pIC50 (CCRF-CEM; Homo sapiens, CCRF-CEM): 5.51 | pIC50 [1]: 7.55

COc1cc2nc(-c3ccc4c(c3)C(N3CCCC3)CC4)cc(O)c2cc1-c1cnco1 (stereo not given)
pIC50 (CCRF-CEM; Homo sapiens, CCRF-CEM): 6.17 | pIC50 [1]: 7.89

COc1cc2nc(-c3ccc4c(c3)C(N(C)C(C)=O)CC4)cc(O)c2cc1-c1cnco1 (stereo not given)
pIC50 (CCRF-CEM; Homo sapiens, CCRF-CEM): 5.96 | pIC50 [1]: 7.74

COc1cc2nc(-c3ccc4c(c3)C(N(C)C)CCO4)cc(O)c2cc1-c1cnco1 (stereo not given)
pIC50 (CCRF-CEM; Homo sapiens, CCRF-CEM): 6.14 | pIC50 [1]: 7.68

COc1cc2nc(-c3ccc4c(c3)C(N(C)C)CC4)cc(O)c2cc1-c1cnco1 (single isomer, unassigned; Enantiomer A)
pIC50 (CCRF-CEM; ccrf-cem): 6.57 | pIC50 [1]: > 8.30 | pIC50 [2]: 6.92

COc1c(C)c2c(c(O)c1C/C=C(\C)CCC(=O)O)C(=O)OC2 [MYCOPHENOLIC ACID]
pIC50 ([2]; Homo sapiens): 6.22

COc1cc2nc(-c3ccc4c(c3)C(N(C)C)CCC4)cc(O)c2cc1-c1cnco1 (stereo not given)
pIC50 (CCRF-CEM; Homo sapiens, CCRF-CEM): 6.43 | pIC50 [1]: 7.82

COc1cc2nc(-c3ccc4c(c3)C(N3CCOCC3)CC4)cc(O)c2cc1-c1cnco1 (stereo not given)
pIC50 (CCRF-CEM; Homo sapiens, CCRF-CEM): 5.96 | pIC50 [1]: 7.70

COc1cc2nc(-c3ccc4c(c3)CCC4N(C)C)cc(O)c2cc1-c1cnco1 (stereo not given)
pIC50 (CCRF-CEM; Homo sapiens, CCRF-CEM): 5.39 | pIC50 [1]: 7.26

COc1cc2nc(-c3ccc4c(c3)C(N3CCCC3)CCO4)cc(O)c2cc1-c1cnco1 (stereo not given)
pIC50 (CCRF-CEM; Homo sapiens, CCRF-CEM): 5.85 | pIC50 [1]: 7.48

COc1cc2nc(-c3ccc(N4CCN(C)CC4)cc3)cc(O)c2cc1-c1cnco1
pIC50 (CCRF-CEM; Homo sapiens, CCRF-CEM): 5.66 | pIC50 [1]: 7.28

COc1cc2nc(-c3ccc(N4CCOCC4)cc3)cc(O)c2cc1-c1cnco1
pIC50 (CCRF-CEM; Homo sapiens, CCRF-CEM): 5.96 | pIC50 [1]: 7.68

COc1cc2nc(-c3ccc(C)c(OCCN4CCOCC4)c3)cc(O)c2cc1-c1cnco1
pIC50 (CCRF-CEM; Homo sapiens, CCRF-CEM): 6.22 | pIC50 [1]: > 8.30

COCC(=O)N(C)C1CCc2ccc(-c3cc(O)c4cc(-c5cnco5)c(OC)cc4n3)cc21 (stereo not given)
pIC50 (CCRF-CEM; Homo sapiens, CCRF-CEM): 5.96 | pIC50 [1]: 7.92

COc1cc2nc(-c3ccc(C)c(OCC4CCCO4)c3)cc(O)c2cc1-c1cnco1 (stereo not given)
pIC50 (CCRF-CEM; Homo sapiens, CCRF-CEM): 6.15 | pIC50 [1]: > 8.30

COc1cc2nc(-c3ccc(OC)c(N4CCN(C)CC4)c3)cc(O)c2cc1-c1cnco1
pIC50 (CCRF-CEM; Homo sapiens, CCRF-CEM): 5.00 | pIC50 [1]: 6.85

COc1cc2nc(-c3ccc4c(c3)C([N+](C)(C)C)CC4)cc(O)c2cc1-c1cnco1 (stereo not given)
pIC50 (CCRF-CEM; Homo sapiens, CCRF-CEM): < 5.00 | pIC50 [1]: 7.52

COc1cc(NC(=O)Nc2cccc(CNC(=O)O[C@H]3CCOC3)c2)ccc1-c1cnco1 [MERIMEPODIB]
pIC50 ([2]; Homo sapiens): 6.77

CNC1CCc2ccc(-c3cc(O)c4cc(-c5cnco5)c(OC)cc4n3)cc21 (stereo not given)
pIC50 (CCRF-CEM; Homo sapiens, CCRF-CEM): 5.80 | pIC50 [1]: 7.92

COc1cc2nc(-c3ccc4c(c3)C(N(C)C(=O)CN3CCOCC3)CC4)cc(O)c2cc1-c1cnco1 (stereo not given)
pIC50 (CCRF-CEM; Homo sapiens, CCRF-CEM): 5.74 | pIC50 [1]: 7.74

COc1cc2nc(-c3ccc(C)c(N4CCN(C)CC4)c3)cc(O)c2cc1-c1cnco1
pIC50 (CCRF-CEM; Homo sapiens, CCRF-CEM): 5.96 | pIC50 [1]: 7.59

COc1cc2nc(-c3ccc4c(c3)C(OC(=O)N(C)C)CC4)cc(O)c2cc1-c1cnco1 (stereo not given)
pIC50 [1]: 7.96

COc1cc2nc(-c3ccc4c(c3)C(O)CCC4)cc(O)c2cc1-c1cnco1 (stereo not given)
pIC50 (CCRF-CEM; Homo sapiens, CCRF-CEM): 5.47 | pIC50 [1]: 7.08

COc1cc2nc(-c3ccc(C)c(N4CCOCC4)c3)cc(O)c2cc1-c1cnco1
pIC50 (CCRF-CEM; Homo sapiens, CCRF-CEM): 6.19 | pIC50 [1]: 8.30

COc1cc2nc(-c3ccc4c(c3)C(N(C)C)CC4)cc(O)c2cc1-c1cnco1 (single isomer, unassigned; enantiomer B)
pIC50 (CCRF-CEM; ccrf-cem): 6.26 | pIC50 [1]: > 8.30 | pIC50 [2]: 6.49

COc1cc2nc(-c3ccc4c(c3)C(N3CCC3)CC4)cc(O)c2cc1-c1cnco1 (stereo not given)
pIC50 (CCRF-CEM; Homo sapiens, CCRF-CEM): 6.10 | pIC50 [1]: 8.22

COc1cc2nc(-c3ccc4c(c3)C(N(C)C)CC4)cc(O)c2cc1-c1cnco1 (stereo in doubt; 27)
pIC50 (CCRF-CEM; ccrf-cem): 6.54 | pIC50 [1]: 8.22

COc1cc2nc(-c3ccc4c(c3)[C@@H](N(C)C)[C@H](OC)C4)cc(O)c2cc1-c1cnco1
pIC50 (CCRF-CEM; Homo sapiens, CCRF-CEM): 6.15 | pIC50 [1]: 7.82

COc1cc2nc(-c3ccc4c(c3)C(N(C)C(=O)Cn3ccnc3)CC4)cc(O)c2cc1-c1cnco1 (stereo not given)
pIC50 (CCRF-CEM; Homo sapiens, CCRF-CEM): < 5.00 | pIC50 [1]: 7.17

COc1cc2nc(-c3cccc(N4CCCC4)c3)cc(O)c2cc1-c1cnco1
pIC50 (CCRF-CEM; Homo sapiens, CCRF-CEM): 5.57 | pIC50 [1]: 7.60

COc1cc2nc(-c3cccc(N4CCOCC4)c3)cc(O)c2cc1-c1cnco1
pIC50 [1]: > 7.30

COc1cc2nc(-c3ccc4c(c3)CN(C)C4)cc(O)c2cc1-c1cnco1
pIC50 (CCRF-CEM; Homo sapiens, CCRF-CEM): 5.96 | pIC50 [1]: 7.85

COc1cc2nc(-c3ccc(C)c(N4CCCC4)c3)cc(O)c2cc1-c1cnco1
pIC50 (CCRF-CEM; Homo sapiens, CCRF-CEM): 6.11 | pIC50 [1]: 7.82

COc1cc2nc(-c3ccc4c(c3)N(C(C)=O)CCO4)cc(O)c2cc1-c1cnco1
pIC50 (CCRF-CEM; Homo sapiens, CCRF-CEM): 5.89 | pIC50 [1]: 7.85

COc1cc2nc(-c3cccc(N4CCN(C)CC4)c3)cc(O)c2cc1-c1cnco1
pIC50 (CCRF-CEM; Homo sapiens, CCRF-CEM): 5.77 | pIC50 [1]: 7.80
